For assay [1], the target named is T1, Beta-lactamase (Staphylococcus aureus, UniProt P00807). Kind of assay: Concentration required for its inhibitory activity against Staphylococcus aureus Russel class A beta-lactamase; No inhibition.
Assay [2] deals with Beta-lactamase (Enterobacter cloacae, UniProt P05364). Nature of the assay: Concentration required for its inhibitory activity against Enterobacter cloacae P99 class C beta-lactamase.
The target in a further assay is T2, Beta-lactamase pse-1 (Escherichia coli, UniProt Q2V0Y6).
T2 sequence (Q2V0Y6 whole entry): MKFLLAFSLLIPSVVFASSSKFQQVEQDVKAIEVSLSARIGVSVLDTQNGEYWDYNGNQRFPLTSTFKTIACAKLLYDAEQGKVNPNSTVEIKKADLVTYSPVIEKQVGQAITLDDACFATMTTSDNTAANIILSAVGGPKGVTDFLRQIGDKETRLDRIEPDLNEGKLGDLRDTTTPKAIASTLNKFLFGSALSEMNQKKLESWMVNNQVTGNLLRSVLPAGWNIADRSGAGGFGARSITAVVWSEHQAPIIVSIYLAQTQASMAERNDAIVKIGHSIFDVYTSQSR
Kind of assay: Concentration required for its inhibitory activity against Escherichia coli K12(PSE4) class A beta-lactamase.

The target of assay [3] is Beta-lactamase (Pseudomonas aeruginosa (strain ATCC 15692 / PAO1 / 1C / PRS 101 / LMG12228), UniProt P24735). Kind of assay: Concentration required for its inhibitory activity against Pseudomonas aeruginosa class C beta-lactamase.
The target of the next assay is Beta-lactamase TEM (Escherichia coli, UniProt P62593). Kind of assay: Concentration required for its inhibitory activity against Escherichia coli JT4(TEM1) class A beta-lactamase.
Assay [4] has as its target T1, Beta-lactamase. Nature of the assay: Concentration required for its inhibitory activity against Staphylococcus aureus Russel class A beta-lactamase.
The target in assay [5] is T3, Beta-lactamase (Proteus mirabilis, UniProt P30897).
T3 sequence (P30897 whole entry): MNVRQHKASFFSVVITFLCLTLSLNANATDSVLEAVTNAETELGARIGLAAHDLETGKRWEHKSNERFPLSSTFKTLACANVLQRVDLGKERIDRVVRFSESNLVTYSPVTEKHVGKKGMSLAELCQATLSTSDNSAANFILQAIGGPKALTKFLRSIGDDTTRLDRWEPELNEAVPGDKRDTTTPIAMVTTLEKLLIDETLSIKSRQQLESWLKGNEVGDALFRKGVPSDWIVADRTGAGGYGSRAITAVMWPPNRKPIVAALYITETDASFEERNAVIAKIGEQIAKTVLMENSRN
Nature of the assay: Concentration required for its inhibitory activity against Proteus mirabilis C889 class A beta-lactamase; No inhibition.

For assay [6], the target named is T4, Beta-lactamase OXA-1 (Escherichia coli, UniProt P13661). Kind of assay: Concentration required for its inhibitory activity against Escherichia coli K12(OXA1) class D beta-lactamase.
For assay [7], the target named is T3, Beta-lactamase. Nature of the assay: Concentration required for its inhibitory activity against Proteus mirabilis C889 class A beta-lactamase.
For assay [8], the target named is T4, Beta-lactamase OXA-1. Kind of assay: Concentration required for its inhibitory activity against Escherichia coli K12(OXA1) class D beta-lactamase; No inhibition.

This passage reports IC50 results from ChEMBL document CHEMBL1152016, “Synthesis and -lactamase inhibition of anacardic acids and their analogues” (Bioorg Med Chem Lett, 1994).

Structures are written as SMILES. Values after ≈ are worked out from the molar mass of the structure shown.

T4 sequence (P13661 whole entry): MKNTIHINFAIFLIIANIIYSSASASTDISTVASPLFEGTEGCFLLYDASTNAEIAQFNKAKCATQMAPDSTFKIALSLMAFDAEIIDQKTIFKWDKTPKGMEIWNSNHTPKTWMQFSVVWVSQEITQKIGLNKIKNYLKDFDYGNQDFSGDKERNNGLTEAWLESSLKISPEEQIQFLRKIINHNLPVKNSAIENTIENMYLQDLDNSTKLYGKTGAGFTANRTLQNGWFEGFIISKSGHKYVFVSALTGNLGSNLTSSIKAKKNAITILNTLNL
T1 sequence (P00807 whole entry): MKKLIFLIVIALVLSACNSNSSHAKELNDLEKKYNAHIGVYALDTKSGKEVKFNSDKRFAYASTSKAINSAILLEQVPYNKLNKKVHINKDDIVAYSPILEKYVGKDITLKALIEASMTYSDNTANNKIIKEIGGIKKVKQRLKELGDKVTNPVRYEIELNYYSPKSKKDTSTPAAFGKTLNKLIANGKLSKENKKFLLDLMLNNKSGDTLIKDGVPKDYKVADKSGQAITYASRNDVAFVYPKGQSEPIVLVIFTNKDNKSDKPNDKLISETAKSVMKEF
Chain of Beta-lactamase (Pseudomonas aeruginosa (strain ATCC 15692 / PAO1 / 1C / PRS 101 / LMG12228), UniProt P24735) (P24735 whole entry): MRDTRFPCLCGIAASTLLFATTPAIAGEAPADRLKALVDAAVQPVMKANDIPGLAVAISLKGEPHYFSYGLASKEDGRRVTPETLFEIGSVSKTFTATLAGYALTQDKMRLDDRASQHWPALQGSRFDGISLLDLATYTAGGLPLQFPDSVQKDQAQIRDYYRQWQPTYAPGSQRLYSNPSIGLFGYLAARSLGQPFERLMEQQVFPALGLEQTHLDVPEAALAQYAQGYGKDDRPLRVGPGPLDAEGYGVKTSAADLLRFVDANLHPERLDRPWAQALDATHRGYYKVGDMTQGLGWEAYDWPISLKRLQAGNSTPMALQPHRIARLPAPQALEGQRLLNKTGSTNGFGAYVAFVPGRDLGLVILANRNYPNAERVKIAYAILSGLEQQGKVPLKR
Chain of Beta-lactamase TEM (P62593 whole entry): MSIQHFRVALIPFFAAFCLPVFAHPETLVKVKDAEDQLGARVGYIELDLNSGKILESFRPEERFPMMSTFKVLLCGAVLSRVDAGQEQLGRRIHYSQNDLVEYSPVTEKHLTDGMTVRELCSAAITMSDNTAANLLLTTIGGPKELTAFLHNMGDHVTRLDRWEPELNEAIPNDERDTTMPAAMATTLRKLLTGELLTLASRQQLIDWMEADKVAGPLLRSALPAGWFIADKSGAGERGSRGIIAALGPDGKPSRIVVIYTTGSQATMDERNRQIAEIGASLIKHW
Chain of Beta-lactamase (Enterobacter cloacae, UniProt P05364) (P05364 whole entry): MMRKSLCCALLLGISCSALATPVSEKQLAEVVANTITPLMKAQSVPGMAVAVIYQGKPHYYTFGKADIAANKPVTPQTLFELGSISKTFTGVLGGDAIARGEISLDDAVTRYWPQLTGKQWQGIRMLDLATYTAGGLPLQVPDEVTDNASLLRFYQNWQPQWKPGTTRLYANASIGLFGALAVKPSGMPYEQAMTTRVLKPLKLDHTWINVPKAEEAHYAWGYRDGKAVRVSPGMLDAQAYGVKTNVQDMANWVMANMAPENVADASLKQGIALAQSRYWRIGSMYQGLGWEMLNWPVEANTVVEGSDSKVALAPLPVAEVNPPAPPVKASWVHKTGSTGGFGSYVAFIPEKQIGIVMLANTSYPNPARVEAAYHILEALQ

On to `CCC=CCC=CCC=CCCCCCCCc1cccc(O)c1C(=O)O`, for which the IC50 result against Beta-lactamase [1] was “Not Active”; at Beta-lactamase [2], 17 µg/mL (≈ 45.9 µM); on Beta-lactamase pse-1, 10 µg/mL (≈ 27 µM).
In turn, `CCCCCCCCCCCCCCCc1cccc(O)c1O` displayed an IC50 on Beta-lactamase [2] of 29 µg/mL (≈ 90.5 µM).
On to `CC(C)CCCCCCCCCCCCCc1cccc(O)c1C(=O)O`, for which the IC50 was 16 µg/mL (≈ 44.1 µM) on Beta-lactamase [3], “Not Active” against Beta-lactamase [1], 9 µg/mL (≈ 24.8 µM) at Beta-lactamase [2] and 9.7 µg/mL (≈ 26.8 µM) against Beta-lactamase TEM.
For the compound `CCCCCCCCCCc1cccc(O)c1`, the IC50 on Beta-lactamase [2] was 4.5 µg/mL (≈ 19.2 µM); against Beta-lactamase pse-1 it was 4.1 µg/mL (≈ 17.5 µM); against Beta-lactamase [4] it was “Not Active”; against Beta-lactamase [5] it was “Not Active”; at Beta-lactamase TEM, 1.9 µg/mL (≈ 8.11 µM).
On to `CCCCCCCCCCCCCCCc1cccc(OC)c1C(=O)O`, for which the IC50 is above 33 µg/mL against Beta-lactamase OXA-1 [6]; 11 µg/mL (≈ 30.3 µM) on Beta-lactamase [3]; “Not Active” against Beta-lactamase [1]; 2.5 µg/mL (≈ 6.9 µM) on Beta-lactamase [2]; 0.6 µg/mL (≈ 1.65 µM) on Beta-lactamase pse-1; 0.8 µg/mL (≈ 2.21 µM) on Beta-lactamase TEM. The compound also returned an IC50 against Beta-lactamase [7] of 22 µg/mL (≈ 60.7 µM).
For the compound `CCCCCCCCc1cccc(O)c1C(=O)O`, the IC50 result at Beta-lactamase [1] was “Not Active”; at Beta-lactamase pse-1 it was 16 µg/mL (≈ 63.9 µM); against Beta-lactamase OXA-1 [8], “Not Active”; against Beta-lactamase [7] it was 3.9 µg/mL (≈ 15.6 µM).
As for `CCCCCCCCCCc1cccc(O)c1C(=O)O`, the IC50 result at Beta-lactamase [1] is “Not Active”; on Beta-lactamase TEM it was 12 µg/mL (≈ 43.1 µM).
With `CCC(C)CCCCCCCCCCCCc1cccc(O)c1C(=O)O` (stereo not given), the IC50 at Beta-lactamase [3] stood at 36 µg/mL (≈ 99.3 µM); against Beta-lactamase [2], 31 µg/mL (≈ 85.5 µM); against Beta-lactamase TEM, 10 µg/mL (≈ 27.6 µM).
Turning to `C=CC/C=C\C/C=C\CCCCCCCc1cccc(O)c1C(=O)O` [ANACARDIC ACID], the IC50 is 25 µg/mL (≈ 73 µM) on Beta-lactamase OXA-1 [6]; 7.2 µg/mL (≈ 21 µM) on Beta-lactamase [3]; “Not Active” against Beta-lactamase [1]; 1.4 µg/mL (≈ 4.09 µM) against Beta-lactamase [2]; 1.1 µg/mL (≈ 3.21 µM) at Beta-lactamase pse-1; 0.8 µg/mL (≈ 2.34 µM) on Beta-lactamase TEM. Moreover, half-maximal inhibition against Beta-lactamase [7] (IC50) was put at 31 µg/mL (≈ 90.5 µM).
With `CCCCCCCCCCc1ccccc1C(=O)O`, the IC50 result at Beta-lactamase [1] was “Not Active”; at Beta-lactamase TEM, 18 µg/mL (≈ 68.6 µM).
Take `CCCCCCCCCCCCCCCCCc1cccc(O)c1C(=O)O`: the IC50 was 29 µg/mL (≈ 77 µM) against Beta-lactamase OXA-1 [6]; 9.1 µg/mL (≈ 24.2 µM) against Beta-lactamase [3]; “Not Active” against Beta-lactamase [1]; 1 µg/mL (≈ 2.66 µM) on Beta-lactamase [2]; 0.7 µg/mL (≈ 1.86 µM) against Beta-lactamase pse-1; 1.9 µg/mL (≈ 5.05 µM) against Beta-lactamase TEM. Moreover, on Beta-lactamase [7], the IC50 stood at 8.3 µg/mL (≈ 22 µM).
`CCCCCCCCCCc1cccc(O)c1O`: on Beta-lactamase [2], the IC50 stood at 21 µg/mL (≈ 83.9 µM).
`CCCCCCCCCCCCCCCc1cccc(O)c1`: the IC50 on Beta-lactamase [2] was 7.2 µg/mL (≈ 23.6 µM); on Beta-lactamase pse-1, 20 µg/mL (≈ 65.7 µM); against Beta-lactamase [5], “Not Active”.
`O=C(O)[C@H]1/C(=C/CO)O[C@@H]2CC(=O)N21` [CLAVULANIC ACID]: the IC50 on Beta-lactamase pse-1 was 0.015 µg/mL (≈ 0.0753 µM).

Usually IC50 stands for the midpoint of a concentration-inhibition curve. Low readings indicate greater potency, high ones weaker potency.
